Measured values from publication PMC3784060 (Cancer Chemotherapy and Pharmacology, 2013).
“And” between values parts separate entries of the source, which are not always exact repeats. Equal entries are not always repeated.

Experiments:
[1] = phase II study in acute leukemia: toxicity (NCI CTCAE version 3.0); format: in vivo, human
Procedure: The study was approved by the Institutional Review Board (IRB) at each participating institution and was conducted in accordance with the Declaration of Helsinki and in compliance with International Conference on Harmonization Good Clinical Practice Guidelines. Written informed consent was obtained from all patients before study enrollment.
(§1) Each cycle lasted 21 days. Patient could continue treatment on the study in the absence of disease progression or unacceptable toxicity. The next cycle of therapy could start if non-hematologic toxicity from previous cycle recovered to ≤grade 1, and dose delay of up to 3 weeks was allowed for recovery. Permanent dose reduction was required for any ≥grade 3 clinically significant non-hematologic adverse event (70 mg/m^2 → 50 mg/m^2; 50 mg/m^2 → 40 mg/m^2; 40 mg/m^2 → 30 mg/m^2; 30 mg/m^2 → discontinue). To allow for continued treatment of subjects whose cytopenias were due to leukemia and not due to drug toxicity, subsequent cycles of treatment were allowed if absolute neutrophil count (ANC) ≥0.5 × 10^9/L or for ANC <0.5 × 10^9/L but no more than 20 % below the baseline pretreatment levels and platelet count ≥20 × 10^9/L or platelets <20 × 10^9/L but no more than 20 % below the baseline pretreatment levels. Anti-emetic prophylaxis including serotonin-receptor antagonist, metoclopramide, or prochloperazine with or without dexamethasone was allowed. […] Dexamethasone 20 mg IV was given early if symptoms of cytokine release syndrome were observed.
(§2) Response was assessed by bone marrow (BM) examination on day 21 of cycles 1 and 2, and every 6 weeks thereafter until complete remission or progressive disease (PD). Response was determined according to the revised recommendations of the International Working Group (IWG) for AML [33]. Toxicities were graded according to the National Cancer Institute Common Terminology Criteria for Adverse Events (NCI CTCAE), version 3.0 (http://ctep.cancer.gov/protocolDevelopment/electronic_applications/docs/ctcaev3.pdf). Hematologic and chemistry profiles were monitored on day 1 and 2 of each cycle or until resolution of acute toxicities and subsequently at least once a week or more frequently depending on the individual patient’s needs.

[2] = tested on: relapsed/refractory AML and ALL; experiment: phase II study in acute leukemia: response, blast/WBC reduction, time to progression; format: in vivo, human; settings: for median WBC count: pretreatment 2,650
Procedure: as §1, §2
The primary efficacy endpoint of the study was the ORR, including complete remission (CR), CR with incomplete count recovery (CRi), and partial remission.

[3] = plasma pharmacokinetics (HPLC-MS/MS, population PK model); settings: human, intravenous
Procedure: Blood samples for PK evaluations (3 mL each) were collected into prechilled K2 EDTA tubes at 0, 0.25–0.5, 1–2, and 4 h after the end of the 2-h infusion on day 1 of cycles 1, 2, and 3. Samples were kept on ice and centrifuged within 1 h of collection at 2,700g/4 °C for 10 min; separated plasma was immediately frozen on dry ice and then stored at −20 °C or below.
A 2-compartment PPK model was developed with data from two phase I studies in solid tumors [31, 32]. The model fits were conducted using NONMEM V, level 1.1 (GloboMax LLC), and a first-order conditional estimation method was employed for all model runs. The model included between-subject variability on clearance and volume of distribution, and mixed error terms.

[4] = dinaciclib-related hematologic toxicity
[5] = 13 patients with circulating blasts, within 1–8 days of first dose
[6] = AML patients, all treated subjects
[7] = patients with circulating blasts

CCc1cnn2c(NCc3ccc[n+]([O-])c3)cc(N3CCCC[C@H]3CCO)nc12 [Dinaciclib]
Grade ≥3 fatigue, patients ([1]; 4 patients): 20% | patients with grade ≥3 treatment-related adverse events ([1]; 15 of 20 patients): 75% | TLS-associated hyperkalemia, patients ([1]; Cairo-Bishop criteria, cycle 1): 25% | TLS-associated hyperphosphatemia, patients ([1]; Cairo-Bishop criteria, cycle 1): 30% | TLS-associated hyperuricemia, patients ([1]; Cairo-Bishop criteria, cycle 1): 10% | TLS-associated hypocalcemia, patients ([1]; Cairo-Bishop criteria, cycle 1): 25% | patients with at least one significant TLS-associated laboratory abnormality ([1]; Cairo-Bishop criteria, cycle 1): half of the patients | Acute renal failure, All (%) ([1]; Cycle 1 n = 20): 2 (10) patients (%) | Acute renal failure, Grade ≥3 ([1]; Cycle 1 n = 20): 2 patients | Anorexia, All (%) ([1]; Cycle 1 n = 20): 1 (5) patients (%) | Bacteremia, All (%) ([1]; Cycle 1 n = 20): 2 (10) patients (%) | Bacteremia, Grade ≥3 ([1]; Cycle 1 n = 20): 2 patients | Cytokine release sy, All (%) ([1]; Cycle 1 n = 20): 2 (10) patients (%) | Dehydration, All (%) ([1]; Cycle 1 n = 20): 1 (5) patients (%) | Dehydration, Grade ≥3 ([1]; Cycle 1 n = 20): 1 patients | Diarrhea, All (%) ([1]; Cycle 1 n = 20): 14 (70) patients (%) | Diarrhea, Grade ≥3 ([1]; Cycle 1 n = 20): 1 patients | Fatigue, All (%) ([1]; Cycle 1 n = 20): 6 (30) patients (%) | Fatigue, Grade ≥3 ([1]; Cycle 1 n = 20): 2 patients | Hyperbilirubinemia, All (%) ([1]; Cycle 1 n = 20): 2 (10) patients (%) | Hyperglycemia, All (%) ([1]; Cycle 1 n = 20): 4 (20) patients (%) | Hyperglycemia, Grade ≥3 ([1]; Cycle 1 n = 20): 2 patients | Hyperkalemia, All (%) ([1]; Cycle 1 n = 20): 3 (15) patients (%) | Hyperkalemia, Grade ≥3 ([1]; Cycle 1 n = 20): 2 patients | Hyperphosphatemia, All (%) ([1]; Cycle 1 n = 20): 5 (25) patients (%) | Hyperphosphatemia, Grade ≥3 ([1]; Cycle 1 n = 20): 1 patients | Hypertension, All (%) ([1]; Cycle 1 n = 20): 1 (5) patients (%) | Hypoalbuminemia, All (%) ([1]; Cycle 1 n = 20): 4 (20) patients (%) | Hypocalcemia, All (%) ([1]; Cycle 1 n = 20): 6 (30) patients (%) | Hypocalcemia, Grade ≥3 ([1]; Cycle 1 n = 20): 1 patients | Hypokalemia, All (%) ([1]; Cycle 1 n = 20): 2 (10) patients (%) | Hyponatremia, All (%) ([1]; Cycle 1 n = 20): 2 (10) patients (%) | Hyponatremia, Grade ≥3 ([1]; Cycle 1 n = 20): 1 patients | Hypotension, All (%) ([1]; Cycle 1 n = 20): 6 (30) patients (%) | Hypotension, Grade ≥3 ([1]; Cycle 1 n = 20): 1 patients | Increased ALT, All (%) ([1]; Cycle 1 n = 20): 4 (20) patients (%) | Increased AST, All (%) ([1]; Cycle 1 n = 20): 8 (40) patients (%) | Increased AST, Grade ≥3 ([1]; Cycle 1 n = 20): 3 patients | Increased LDH, All (%) ([1]; Cycle 1 n = 20): 2 (10) patients (%) | Increased LDH, Grade ≥3 ([1]; Cycle 1 n = 20): 2 patients | Increased creatinine, All (%) ([1]; Cycle 1 n = 20): 3 (15) patients (%) | Increased creatinine, Grade ≥3 ([1]; Cycle 1 n = 20): 1 patients | Nausea, All (%) ([1]; Cycle 1 n = 20): 8 (40) patients (%) | Nausea, Grade ≥3 ([1]; Cycle 1 n = 20): 1 patients | Pneumonia, All (%) ([1]; Cycle 1 n = 20): 2 (10) patients (%) | Pneumonia, Grade ≥3 ([1]; Cycle 1 n = 20): 2 patients | Sinus Tachycardia, All (%) ([1]; Cycle 1 n = 20): 2 (10) patients (%) | Stomatitis, All (%) ([1]; Cycle 1 n = 20): 1 (5) patients (%) | Syncope, All (%) ([1]; Cycle 1 n = 20): 1 (5) patients (%) | Syncope, Grade ≥3 ([1]; Cycle 1 n = 20): 1 patients | Tumor lysis sy, All (%) ([1]; Cycle 1 n = 20): 3 (15) patients (%) | Tumor lysis sy, Grade ≥3 ([1]; Cycle 1 n = 20): 3 patients | Vomiting, All (%) ([1]; Cycle 1 n = 20): 9 (45) patients (%) | Dehydration, All (%) ([1]; Cycle 2 n = 10): 1 (10) patients (%) | Diarrhea, All (%) ([1]; Cycle 2 n = 10): 7 (70) patients (%) | Diarrhea, Grade ≥3 ([1]; Cycle 2 n = 10): 1 patients | Fatigue, All (%) ([1]; Cycle 2 n = 10): 2 (20) patients (%) | Fatigue, Grade ≥3 ([1]; Cycle 2 n = 10): 1 patients | Hyperbilirubinemia, All (%) ([1]; Cycle 2 n = 10): 1 (10) patients (%) | Hyperkalemia, All (%) ([1]; Cycle 2 n = 10): 1 (10) patients (%) | Hyperphosphatemia, All (%) ([1]; Cycle 2 n = 10): 1 (10) patients (%) | Hypoalbuminemia, All (%) ([1]; Cycle 2 n = 10): 1 (10) patients (%) | Hypotension, All (%) ([1]; Cycle 2 n = 10): 2 (20) patients (%) | Increased ALT, All (%) ([1]; Cycle 2 n = 10): 1 (10) patients (%) | Increased AST, All (%) ([1]; Cycle 2 n = 10): 1 (10) patients (%) | Nausea, All (%) ([1]; Cycle 2 n = 10): 3 (30) patients (%) | Pneumonia, All (%) ([1]; Cycle 2 n = 10): 1 (10) patients (%) | Stomatitis, All (%) ([1]; Cycle 2 n = 10): 1 (10) patients (%) | Stomatitis, Grade ≥3 ([1]; Cycle 2 n = 10): 1 patients | Syncope, All (%) ([1]; Cycle 2 n = 10): 1 (10) patients (%) | Syncope, Grade ≥3 ([1]; Cycle 2 n = 10): 1 patients | Vomiting, All (%) ([1]; Cycle 2 n = 10): 2 (20) patients (%) | Anorexia, All (%) ([1]; Cycle 3 n = 6): 1 (17) patients (%) | Cytokine release sy, All (%) ([1]; Cycle 3 n = 6): 1 (17) patients (%) | Cytokine release sy, Grade ≥3 ([1]; Cycle 3 n = 6): 1 patients | Diarrhea, All (%) ([1]; Cycle 3 n = 6): 2 (33) patients (%) | Fatigue, All (%) ([1]; Cycle 3 n = 6): 1 (17) patients (%) | Fatigue, Grade ≥3 ([1]; Cycle 3 n = 6): 1 patients | Hypertension, All (%) ([1]; Cycle 3 n = 6): 1 (17) patients (%) | Increased ALT, All (%) ([1]; Cycle 3 n = 6): 1 (17) patients (%) | Nausea, All (%) ([1]; Cycle 3 n = 6): 1 (17) patients (%) | Vomiting, All (%) ([1]; Cycle 3 n = 6): 2 (33) patients (%) | ≥grade 3 anemia, patients [1, 4]: 25% | ≥grade 3 febrile neutropenia, patients [1, 4]: 25% | ≥grade 3 leukopenia, patients [1, 4]: 40% | ≥grade 3 neutropenia, patients [1, 4]: 10% | ≥grade 3 thrombocytopenia, patients [1, 4]: 20% | Grade 1 and 2 diarrhea, patients ([1]; in vivo): 70% | objective responses by IWG criteria ([2]; 50 mg/m^2 2-h infusion every 21 days, 20 patients): No objective responses | average reduction in BM blasts ([2]; 8 of 13 patients with follow-up BM evaluations): 36% | patients with >50 % decrease in absolute blast count (ABC) [2, 5]: 77% | patients with >80 % decrease in absolute blast count (ABC) [2, 5]: 46% | TTP ([2]; ALL patients): 1 to 8.14 weeks | median TTP ([2]; AML patients included in the initial randomization): 5.14 weeks | Beta Posterior Mean (Bayes estimate of the response rate) [2, 6]: 0.071 | Difference in observed response rate (SCH727965 - Mylotarg) [2, 6]: -12.500% | Number of Non-responders [2, 6]: 12 | Number of Responders [2, 6]: 0 | Posterior Probability (This treatment is better) [2, 6]: 0.200 | Observed Response Rate (%) ([2]; AML patients, all treated subjects, frequentist approach): 0.000% | Median time to progression, Estimate ([2]; all treated AML patients): 5.14 weeks | Number of Events (progression) ([2]; all treated AML patients): 10 | median WBC count ([2]; day 2): 1,045 × 10^6/L | median WBC count ([2]; day 8): 1,350 × 10^6/L | median duration of the WBC nadir ([2]; in vivo): 5 days | patients with temporary decrease in PB and/or marrow blasts ([2]; in vivo): 60% | duration of ABC nadir [2, 7]: 7 days | median time to ABC nadir [2, 7]: 3 days | median ABC nadir ([2]; patients with circulating blasts, pre-treatment 1,130): 2e+08 L⁻¹ | TTP ([2]; two AML patients who crossed over from GO, individual values): 7.86 weeks and 9.14 weeks | Cmax [3]: > 4 µM | concentration at 2 h ([3]; 40 mg/m^2): 1010 ng/mL | concentration at 2.25 h ([3]; 40 mg/m^2): 1100 ng/mL | concentration at 4 h ([3]; 40 mg/m^2): 118 ng/mL | concentration at 6 h ([3]; 40 mg/m^2): 42.4 ng/mL | AUC ([3]; 50 mg/m^2): 3560 ng·h/mL | concentration at 2.25 h ([3]; 50 mg/m^2): 707 ng/mL | concentration at 2.5 h ([3]; 50 mg/m^2): 354 ng/mL | concentration at 3 h ([3]; 50 mg/m^2): 195 ng/mL | concentration at 4 h ([3]; 50 mg/m^2): 139 ng/mL | concentration at 6 h ([3]; 50 mg/m^2): 36.7 ng/mL | AUC ([3]; 70 mg/m^2): 4980 ng·h/mL | concentration at 2 h ([3]; 70 mg/m^2): 1700 ng/mL | concentration at 2.25 h ([3]; 70 mg/m^2): 724 ng/mL | concentration at 2.5 h ([3]; 70 mg/m^2): 457 ng/mL | concentration at 3 h ([3]; 70 mg/m^2): 307 ng/mL | concentration at 4 h ([3]; 70 mg/m^2): 125 ng/mL | concentration at 6 h ([3]; 70 mg/m^2): 52.2 ng/mL
